From ChEMBL document CHEMBL5537145, “Design, synthesis and evaluation of novel UDCA-aminopyrimidine hybrids as ATX inhibitors for the treatment of hepatic and pulmonary fibrosis” (Eur J Med Chem, 2024)
One block for each compound: values may come before it. Activity calls are given as the source filed them. The rule behind the calls is not given here.

Tests used:
Autotaxin [1] = target: T1, Autotaxin (Homo sapiens, UniProt Q13822); assay: Inhibition of human ATX in using LPC as substrate by fluorescence based microplate reader assay
CCC-HPF-1 [2] = assay: Anti-pulmonary fibrosis activity against TGF-beta1 stimulated human CCC-HPF-1 cells assessed as reduction in Smad3 phosphorylation incubated for 48 hrs by Western blotting analysis; assay type: functional, cell-based; details: dose 5-20 µM
CCC-HPF-1 [3] = assay: Effect on total Smad2 level in TGF-beta1 stimulated human CCC-HPF-1 cells at 5 to 20 uM incubated for 48 hrs by Western blotting analysis; assay type: functional, cell-based; details: dose 5-20 µM
CCC-HPF-1 [4] = assay: Anti-pulmonary fibrosis activity against TGF-beta1 stimulated human CCC-HPF-1 cells assessed as reduction in COL1A1 mRNA expression level at 5 to 20 uM incubated for 48 hrs by quantitative real-time PCR analysis; assay type: functional, cell-based; details: dose 5-20 µM
LX-2 [5] = assay: Anti-hepatic fibrosis activity against TGF-beta1 stimulated human LX2 cells assessed as reduction in FN protein expression level at 5 to 20 uM incubated for 48 hrs by Western blotting analysis; assay type: functional, cell-based; details: dose 5-20 µM
CCC-HPF-1 [6] = assay: Anti-pulmonary fibrosis activity against TGF-beta1 stimulated human CCC-HPF-1 cells assessed as reduction in Smad2 phosphorylation incubated for 48 hrs by Western blotting analysis; assay type: functional, cell-based; details: dose 5-20 µM
CCC-HPF-1 [7] = assay: Anti-pulmonary fibrosis activity against TGF-beta1 stimulated human CCC-HPF-1 cells assessed as reduction in FN mRNA expression level at 5 to 20 uM incubated for 48 hrs by quantitative real-time PCR analysis; assay type: functional, cell-based; details: dose 5-20 µM
LX-2 [8] = assay: Effect on total Smad2 level in TGF-beta1 stimulated human LX2 cells at 5 to 20 uM incubated for 48 hrs by Western blotting analysis; assay type: functional, cell-based; details: dose 5-20 µM
CCC-HPF-1 [9] = assay: Anti-pulmonary fibrosis activity against TGF-beta1 stimulated human CCC-HPF-1 cells assessed as reduction in FN protein expression level at 5 to 20 uM incubated for 48 hrs by Western blotting analysis; assay type: functional, cell-based; details: dose 5-20 µM
LX-2 [10] = assay: Effect on total Smad3 level in TGF-beta1 stimulated human LX2 cells at 5 to 20 uM incubated for 48 hrs by Western blotting analysis; assay type: functional, cell-based; details: dose 5-20 µM
CCC-HPF-1 [11] = assay: Anti-migratory activity against TGF-beta1 stimulated human CCC-HPF-1 cells at 10 uM incubated for 24 hrs by light microscopic analysis; assay type: functional, cell-based
LX-2 [12] = assay: Anti-migratory activity against TGF-beta1 stimulated human LX2 cells at 10 uM incubated for 24 hrs by light microscopic analysis; assay type: functional, cell-based
CCC-HPF-1 [13] = assay: Anti-pulmonary fibrosis activity against TGF-beta1 stimulated human CCC-HPF-1 cells assessed as reduction in alpha-SMA protein expression level at 5 to 20 uM incubated for 48 hrs by Western blotting analysis; assay type: functional, cell-based; details: dose 5-20 µM
Autotaxin [14] = target: T1, Autotaxin; assay: Potency index, ratio of GLPG-1690 IC50 to test compound IC50 for inhibition of human ATX in using LPC as substrate by fluorescence based microplate reader assay
LX-2 [15] = assay: Anti-hepatic fibrosis activity against TGF-beta1 stimulated human LX2 cells assessed as reduction in FN mRNA expression level at 5 to 20 uM incubated for 48 hrs by quantitative real-time PCR analysis; assay type: functional, cell-based; details: dose 5-20 µM
LX-2 [16] = assay: Anti-hepatic fibrosis activity against TGF-beta1 stimulated human LX2 cells assessed as reduction in Smad2 phosphorylation incubated for 48 hrs by Western blotting analysis; assay type: functional, cell-based; details: dose 5-20 µM
CCC-HPF-1 [17] = assay: Effect on total Smad3 level in TGF-beta1 stimulated human CCC-HPF-1 cells at 5 to 20 uM incubated for 48 hrs by Western blotting analysis; assay type: functional, cell-based; details: dose 5-20 µM
LX-2 [18] = assay: Anti-hepatic fibrosis activity against TGF-beta1 stimulated human LX2 cells assessed as reduction in COL1A1 mRNA expression level at 5 to 20 uM incubated for 48 hrs by quantitative real-time PCR analysis; assay type: functional, cell-based; details: dose 5-20 µM
LX-2 [19] = assay: Anti-hepatic fibrosis activity against TGF-beta1 stimulated human LX2 cells assessed as inhibition of Smad2/3 nuclear translocation at 10 uM incubated for 48 hrs by DAPI staining based immunofluorescence analysis; assay type: functional, cell-based
CCC-HPF-1 [20] = assay: Anti-pulmonary fibrosis activity against TGF-beta1 stimulated human CCC-HPF-1 cells assessed as inhibition of Smad2/3 nuclear translocation at 10 uM incubated for 48 hrs by DAPI staining based immunofluorescence analysis; assay type: functional, cell-based
LX-2 [21] = assay: Anti-hepatic fibrosis activity against TGF-beta1 stimulated human LX2 cells assessed as reduction in alpha-SMA protein expression level at 5 to 20 uM incubated for 48 hrs by Western blotting analysis; assay type: functional, cell-based; details: dose 5-20 µM
CCC-HPF-1 [22] = assay: Cytotoxicity against human CCC-HPF-1 cells assessed as reduction in cell viability at 2.5 to 80 uM incubated for 48 hrs by MTT assay; assay type: toxicity, cell-based; details: ccc-hpf-1, 48 h, dose 2.5-80 µM
CCC-HPF-1 [23] = assay: Anti-pulmonary fibrosis activity against TGF-beta1 stimulated human CCC-HPF-1 cells assessed as reduction in COL1A1 protein expression level at 5 to 20 uM incubated for 48 hrs by Western blotting analysis; assay type: functional, cell-based; details: dose 5-20 µM
CCC-HPF-1 [24] = assay: Anti-pulmonary fibrosis activity against TGF-beta1 stimulated human CCC-HPF-1 cells assessed as reduction in alpha-SMA mRNA expression level at 5 to 20 uM incubated for 48 hrs by quantitative real-time PCR analysis; assay type: functional, cell-based; details: dose 5-20 µM
LX-2 [25] = assay: Anti-hepatic fibrosis activity against TGF-beta1 stimulated human LX2 cells assessed as reduction in COL1A1 protein expression level at 5 to 20 uM incubated for 48 hrs by Western blotting analysis; assay type: functional, cell-based; details: dose 5-20 µM
LX-2 [26] = assay: Anti-hepatic fibrosis activity against TGF-beta1 stimulated human LX2 cells assessed as reduction in alpha-SMA mRNA expression level at 5 to 20 uM incubated for 48 hrs by quantitative real-time PCR analysis; assay type: functional, cell-based; details: dose 5-20 µM
LX-2 [27] = assay: Anti-hepatic fibrosis activity against TGF-beta1 stimulated human LX2 cells assessed as reduction in Smad3 phosphorylation incubated for 48 hrs by Western blotting analysis; assay type: functional, cell-based; details: dose 5-20 µM
LX-2 [28] = assay: Cytotoxicity against human LX2 cells assessed as reduction in cell viability at 2.5 to 80 uM incubated for 48 hrs by MTT assay; assay type: toxicity, cell-based; details: lx-2, 48 h, dose 2.5-80 µM

IC50 (Autotaxin [1]): 15.6 nM
Structure (SMILES): C[C@H](CCC(=O)N1CCc2nc(NCCc3ccccc3F)ncc2C1)[C@H]1CC[C@H]2[C@@H]3[C@@H](O)C[C@@H]4C[C@H](O)CC[C@]4(C)[C@H]3CC[C@]12C

IC50 (Autotaxin [1]): 91.7 nM
Structure (SMILES): C[C@H](CCC(=O)N1CCc2nc(NCCc3ccc(F)cc3)ncc2C1)[C@H]1CC[C@H]2[C@@H]3[C@@H](O)C[C@@H]4C[C@H](O)CC[C@]4(C)[C@H]3CC[C@]12C

IC50 (Autotaxin [1]): 165 nM
Structure (SMILES): C[C@H](CCC(=O)N1CCc2nc(NCCc3cccc(Cl)c3)ncc2C1)[C@H]1CC[C@H]2[C@@H]3[C@@H](O)C[C@@H]4C[C@H](O)CC[C@]4(C)[C@H]3CC[C@]12C

IC50 (Autotaxin [1]): 41.4 nM
Structure (SMILES): C[C@H](CCC(=O)N1CCc2nc(NCCc3cccc(F)c3)ncc2C1)[C@H]1CC[C@H]2[C@@H]3[C@@H](O)C[C@@H]4C[C@H](O)CC[C@]4(C)[C@H]3CC[C@]12C

IC50 (Autotaxin [1]): 46.3 nM
Structure (SMILES): C[C@H](CCC(=O)N1CCc2nc(NCCc3ccc(Br)cc3)ncc2C1)[C@H]1CC[C@H]2[C@@H]3[C@@H](O)C[C@@H]4C[C@H](O)CC[C@]4(C)[C@H]3CC[C@]12C

IC50 (Autotaxin [1]): 7.51 nM
Ratio IC50 (Autotaxin [14]): 9
Structure (SMILES): C[C@H](CCC(=O)N1CCc2nc(NCCc3ccc(Cl)cc3)ncc2C1)[C@H]1CC[C@H]2[C@@H]3[C@@H](O)C[C@@H]4C[C@H](O)CC[C@]4(C)[C@H]3CC[C@]12C
Activity (CCC-HPF-1 [2]): Dose-Dependent Effect
Activity (CCC-HPF-1 [3]): inactive
Activity (CCC-HPF-1 [4]): Active
Activity (LX-2 [5]): Active
Activity (CCC-HPF-1 [6]): Dose-Dependent Effect
Activity (CCC-HPF-1 [7]): Active
Activity (LX-2 [8]): inactive
Activity (CCC-HPF-1 [9]): Active
Activity (LX-2 [10]): inactive
Activity (CCC-HPF-1 [11]): Active
Activity (LX-2 [12]): Active
Activity (CCC-HPF-1 [13]): Active
Activity (LX-2 [15]): Active
Activity (LX-2 [16]): Dose-Dependent Effect
Activity (CCC-HPF-1 [17]): inactive
Activity (LX-2 [18]): Active
Activity (LX-2 [19]): Active
Activity (CCC-HPF-1 [20]): Active
Activity (LX-2 [21]): Active
Activity (CCC-HPF-1 [22]): Non-Toxic
Activity (CCC-HPF-1 [23]): Active
Activity (CCC-HPF-1 [24]): Active
Activity (LX-2 [25]): Active
Activity (LX-2 [26]): Active
Activity (LX-2 [27]): Dose-Dependent Effect
Activity (LX-2 [28]): Non-Toxic

The next lines start with the compound.

Structure (SMILES): C[C@H](CCC(=O)N1Cc2cnc(NC3Cc4ccccc4C3)nc2C1)[C@H]1CC[C@H]2[C@@H]3[C@@H](O)C[C@@H]4C[C@H](O)CC[C@]4(C)[C@H]3CC[C@]12C
IC50 (Autotaxin [1]): 438 nM

Structure (SMILES): C[C@H](CCC(=O)N1CCc2nc(NCc3ccccc3)ncc2C1)[C@H]1CC[C@H]2[C@@H]3[C@@H](O)C[C@@H]4C[C@H](O)CC[C@]4(C)[C@H]3CC[C@]12C
IC50 (Autotaxin [1]): 342 nM

Structure (SMILES): C[C@H](CCC(=O)N1CCc2nc(NCCCc3ccccc3)ncc2C1)[C@H]1CC[C@H]2[C@@H]3[C@@H](O)C[C@@H]4C[C@H](O)CC[C@]4(C)[C@H]3CC[C@]12C
IC50 (Autotaxin [1]): 165 nM

Structure (SMILES): C[C@H](CCC(=O)N1CCc2nc(NC3Cc4ccc(Br)cc4C3)ncc2C1)[C@H]1CC[C@H]2[C@@H]3[C@@H](O)C[C@@H]4C[C@H](O)CC[C@]4(C)[C@H]3CC[C@]12C (stereo partly specified)
IC50 (Autotaxin [1]): 15.4 nM

Structure (SMILES): C[C@H](CCC(=O)N1CCc2nc(NCCc3c[nH]c4ccccc34)ncc2C1)[C@H]1CC[C@H]2[C@@H]3[C@@H](O)C[C@@H]4C[C@H](O)CC[C@]4(C)[C@H]3CC[C@]12C
IC50 (Autotaxin [1]): 335 nM

Structure (SMILES): C[C@H](CCC(=O)N1CCc2nc(NC3Cc4ccccc4C3)ncc2C1)[C@H]1CC[C@H]2[C@@H]3[C@@H](O)C[C@@H]4C[C@H](O)CC[C@]4(C)[C@H]3CC[C@]12C
Activity (CCC-HPF-1 [2]): Dose-Dependent Effect
Activity (CCC-HPF-1 [3]): inactive
Activity (CCC-HPF-1 [4]): Active
IC50 (Autotaxin [1]): 7.62 nM
Activity (LX-2 [5]): Active
Activity (CCC-HPF-1 [6]): Dose-Dependent Effect
Activity (CCC-HPF-1 [7]): Active
Activity (LX-2 [8]): inactive
Activity (CCC-HPF-1 [9]): Active
Activity (LX-2 [10]): inactive
Activity (CCC-HPF-1 [11]): Active
Activity (LX-2 [12]): Active
Activity (CCC-HPF-1 [13]): Active
Ratio IC50 (Autotaxin [14]): 9
Activity (LX-2 [15]): Active
Activity (LX-2 [16]): Dose-Dependent Effect
Activity (CCC-HPF-1 [17]): inactive
Activity (LX-2 [18]): Active
Activity (LX-2 [19]): Active
Activity (CCC-HPF-1 [20]): Active
Activity (LX-2 [21]): Active
Activity (CCC-HPF-1 [22]): Non-Toxic
Activity (CCC-HPF-1 [23]): Active
Activity (CCC-HPF-1 [24]): Active
Activity (LX-2 [25]): Active
Activity (LX-2 [26]): Active
Activity (LX-2 [27]): Dose-Dependent Effect
Activity (LX-2 [28]): Non-Toxic
